{
  "source": "paper PMC10897476",
  "about": "“Pyridylpiperazine efflux pump inhibitor boosts in vivo antibiotic efficacy against K. pneumoniae” (EMBO Molecular Medicine, 2023)",
  "key": {"[1]": {"assay": "Microsomal stability in mouse liver microsomes", "type": "in vitro ADME", "conditions": "female", "protocol": "To determine compound microsomal stability, liver microsomes from female mice (CD-1, Corning) were used. All incubations were performed in duplicate in a shaking water bath at 37 °C. The incubation mixtures contained 1 μM compound with 1% MeOH used as a vehicle, mouse liver microsomes (0.3 mg of microsomal protein per mL), 5 mM MgCl2, 1 mM NADP, 5 mM glucose 6-phosphate, 0.4 U/mL glucose 6-phosphate dehydrogenase, and 50 mM potassium phosphate buffer (pH 7.4) in a final volume of 0.5 mL. Propranolol, known as a high hepatic clearance drug in rodents, was used as a quality-control compound. Controls (t0 and tfinal) were performed in the same conditions but without NADP. The reaction was initiated by the addition of the compound at 1 µM final. Aliquots were removed at 5, 10, 20, 30, and 40 min and the reaction was stopped by adding four volumes of ice-cold MeCN or MeOH containing an internal standard. The samples were centrifuged for 10 min at 12,000 rpm at 4 °C and the supernatants were transferred in matrix tubes for LC-MS/MS analysis. Each compound was quantified by converting the corresponding analyte/internal standard peak area ratios to percentage drug remaining, using the initial ratio values in control incubations as 100%.\nIntrinsic clearance (CLint) is expressed as μL/min/mg proteins."}, "[2]": {"assay": "Toxicity in mice after a single oral administration", "type": "in vivo", "conditions": "over a 24-h period after a single oral administration at 30 mg/kg", "protocol": "For these reasons, this compound was selected for multi-organ pharmacokinetic (PK) studies to measure its temporal distribution and tissue concentration in female mice (CD-1), following a single oral administration of 30 mg/kg (Fig. EV3A; Appendix Table S3)."}, "[3]": {"assay": "Pharmacokinetics in mice in combination with levofloxacin (plasma, lung after BAL, ELF)", "type": "in vivo, female CD-1 mice", "conditions": "female, CD-1, mouse, ELF and plasma, oral; higher than plasma; read-out: ELF exposure (AUC) relative to that measured in the plasma", "protocol": "The concentration of compounds in plasma, lungs and ELF was measured after 2 h, 6 h and 24 h. […] After rodent sacrifice by cervical dislocation, bronchoalveolar lavage (BAL) fluid was collected using a cannula inserted into the trachea. 1 mL of PBS was introduced in lungs via the cannula and the collected BAL fluid was centrifuged (5 min, 3500 rpm, 4 °C). Supernatants were removed, their volume recorded, and samples stored at −80 °C until analysis.\nPlasma and BAL fluid samples were thawed on ice.\nThe concentration of compound in ELF, [cpd]ELF, was calculated as follows: cpdELF=cpdBALxVBAL/VELF where [cpd]BAL is the measured concentration of compound in BAL fluid supernatant, VBAL and VELF, the volume of aspired BAL and the calculated volume of ELF, respectively.\nThe volume of ELF was calculated as follows: VELF=VBALxUreaBAL/UreaPlasma where VELF represents the apparent volume of ELF, VBAL is the volume of aspired BAL, and [Urea]BAL and [Urea]Plasma are concentration of urea in BAL fluid or plasma, respectively.\nConcentrations of urea in plasma and in BAL fluid supernatant was measured using the UREA Nitrogen (BUN) colorimetric detection kit, according to the supplier procedural guidelines (Invitrogen)."}, "[4]": {"assay": "Solubility in PBS pH 7.4", "type": "physicochemical", "conditions": "PBS pH 7.4, pH 7.4, aqueous buffer, thermodynamic from solid", "protocol": "0.5 mg of BDM91288 (5) were dissolved either in 1235 μL of PBS pH 7.4 (triplicate) or in 1235 µL of DMSO (triplicate twice). After gently stirring 24 h at room temperature, the solutions were centrifuged for 5 min at 4000 rpm and filtered over 0.45-μm filters (Millex-LH Millipore), excepted one of the DMSO triplicate. Then, 2 µL of each solution was diluted in 998 µL of MeOH were transferred in matrix tubes for LC-MS/MS analysis. The solubility was determined according to the following formula: Solubility (µM) = [AUC(filtered PBS)/AUC(not filtered DMSO)] × 1000."}, "[5]": {"system": "E. coli BW25113", "assay": "PyrPip boosting of pyridomycin activity in E. coli (resazurin reduction)", "type": "cell-based, Escherichia coli", "conditions": "read-out: PyrPip antibiotic boosting activity EC90; E. coli BW25113 in the presence of 8 μg/mL pyridomycin, resazurin reduction; mean ± SEM", "text": "With the aim of developing a PyrPip for in vivo efficacy studies in mice, it was important to optimise the metabolic stability of these efflux pump inhibitors to guarantee sufficient exposure in mice needed for antibiotic boosting. […] To identify metabolically stabilised PyrPips while maintaining AcrB inhibition, it was therefore decided to explore modifications to the quinoline core as well as the introduction of substituents at position 6 of the quinoline ring."}},
  "data": [
    {"compound": "Clc1cc2cc(N3CCNCC3)ccc2nc1N1CCNCC1", "note": "[compound 5]", "values": [
      {"measurement": "microsomal CLint at 1 μM", "setting": "[1]; CD-1, pH 7.4, read-out: Microsomal stability CLint (intrinsic clearance)", "result": 6, "unit": "µL/min/mg"},
      {"measurement": "half-life at 1 μM", "setting": "[1]; CD-1, pH 7.4, read-out: Microsomal stability t1/2", "result": "> 40", "unit": "min"},
      {"measurement": "toxicity in mice", "setting": "[2]", "result": "no toxicity was observed"},
      {"measurement": "Kp", "setting": "[3]", "result": 2.3},
      {"measurement": "solubility at 24 h", "setting": "[4]", "result": "≥ 1000", "unit": "µM"},
      {"measurement": "EC90", "setting": "[5]", "result": "3.3 ± 1.7", "unit": "µM"}
    ]}
  ]
}
